What is called IC50 is the midpoint of a concentration-inhibition curve.

The target of the assay is human ADRA2C receptor (Homo sapiens (Human), UniProt P18825). The experiment in a line: In vitro activity assay to determine the inhibition of recombinant ADRA2C (CHO-K1 cells, aequorin bioluminescence). Type of assay: cell-based. The conditions noted are these: inhibition of noradrenaline-induced bioluminescence signal; some mean values from multiple determinations; read-out: ARα2C IC50. In short, it runs like this: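 IC50 is the concentration halving the agonist (noradrenaline)-evoked rise in aequorin luminescence, fitted by 4-parameter Hill function. Read in stable Gαq/aequorin CHO-K1 cells expressing recombinant human ADRA2C.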
Chain of human ADRA2C receptor (P18825 whole entry): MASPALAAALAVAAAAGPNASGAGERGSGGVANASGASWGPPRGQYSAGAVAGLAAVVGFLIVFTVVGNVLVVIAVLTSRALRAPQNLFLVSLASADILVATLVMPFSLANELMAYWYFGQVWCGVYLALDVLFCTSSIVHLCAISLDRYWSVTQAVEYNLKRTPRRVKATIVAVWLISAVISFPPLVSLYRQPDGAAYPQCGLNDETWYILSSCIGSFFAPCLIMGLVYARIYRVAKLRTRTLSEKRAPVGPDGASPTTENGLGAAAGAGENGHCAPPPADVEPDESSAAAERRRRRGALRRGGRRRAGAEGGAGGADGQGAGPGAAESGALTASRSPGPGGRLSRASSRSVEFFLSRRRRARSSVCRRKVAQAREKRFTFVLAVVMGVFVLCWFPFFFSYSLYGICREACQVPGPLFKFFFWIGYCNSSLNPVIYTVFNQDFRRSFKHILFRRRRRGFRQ
For `COc1ccc(F)cc1NC(=O)c1cnc(N2CCC(N3CCC[C@@H](C)C3)CC2)s1` [Example 97], the concentration for half-maximal inhibition (IC50) was found to be 1300 nM.

Regarding `CCc1cc(NC(=O)c2cnc(N3CCC(N4CCC[C@@H](C)C4)CC3)s2)ccn1` [Example 98], the IC50 is 1600 nM.

With `O=C(NCc1ncc(F)cc1F)c1cnc(N2CCC(N3CCC[C@@H](OCC4CC4)C3)CC2)s1` [Example 114, 2-[(3R)-3-(Cyclopropylmethoxy)[1,4′-bipiperidin]-1′-yl]-N-[(3,5-difluoropyridin-2-yl)methyl]-1,3-thiazole-5-carboxamide], the IC50 came out at 1.3 nM.

For the molecule `C[C@@H]1CCCN(C2CCN(c3nc(-c4ccccc4Cl)c(C(=O)NCc4ncc(F)cc4F)s3)CC2)C1` [Example 118, 4-(2-Chlorophenyl)-N-[(3,5-difluoropyridin-2-yl)methyl]-2-[(3R)-3-methyl[1,4′-bipiperidin]-1′-yl]-1,3-thiazole-5-carboxamide], the IC50 is 7.7 nM.

Consider `C[C@@H]1CCCN(C2CCN(c3nc(Cl)c(C(=O)NCc4ncc(F)cc4F)s3)CC2)C1` [Example 120, 4-Chloro-N-[(3,5-difluoropyridin-2-yl)methyl]-2-[(3R)-3-methyl[1,4′-bipiperidin]-1′-yl]-1,3-thiazole-5-carboxamide], for which the concentration for half-maximal inhibition (IC50) was 41 nM.

For `C[C@@H]1CCCN(C2CCN(c3nc(C4CC4)c(C(=O)NCc4ncc(F)cc4F)s3)CC2)C1` [Example 122, 4-Cyclopropyl-N-[(3,5-difluoropyridin-2-yl)methyl]-2-[(3R)-3-methyl[1,4′-bipiperidin]-1′-yl]-1,3-thiazole-5-carboxamide], the IC50 was found to be 13 nM.

For `O=C(NCc1ncc(F)cc1F)c1cnc(N2CCC(N3CCCCC3)CC2)s1` [Example 128, 2-([1,4′-Bipiperidin]-1′-yl)-N-[(3,5-difluoropyridin-2-yl)methyl]-1,3-thiazole-5-carboxamide], the IC50 worked out at 550 nM.

In the case of `C[C@@H]1CCCN(C2CCN(c3ncc(C(=O)NC4(c5ncc(F)cc5F)CC4)s3)CC2)C1` [Example 129, N-[1-(3,5-Difluoropyridin-2-yl)cyclopropyl]-2-[(3R)-3-methyl[1,4′-bipiperidin]-1′-yl]-1,3-thiazole-5-carboxamide], the IC50 was 10 nM.

In the case of `CCc1nc(N2CCC(N3CCC[C@@H](C)C3)CC2)sc1C(=O)NCc1ncc(F)cc1F` [Example 130, N-[(3,5-Difluoropyridin-2-yl)methyl]-4-ethyl-2-[(3R)-3-methyl[1,4′-bipiperidin]-1′-yl]-1,3-thiazole-5-carboxamide], the IC50 was 0.54 nM.

With `O=C(NCc1ncc(F)cc1F)c1cnc(N2CCC(N3CCCC4(C3)CC4(F)F)C(F)C2)s1` (stereo not drawn) [Example 134, diamix-2-[4-(1,1-Difluoro-5-azaspiro[2.5]octan-5-yl)-3-fluoropiperidin-1-yl]-N-[(3,5-difluoropyridin-2-yl)methyl]-1,3-thiazole-5-carboxamide], the half-maximal inhibitory concentration (IC50) worked out at 0.74 nM.

On to `O=C(NCc1ncc(F)cc1F)c1cnc(N2CCC(N3CCCC4(COC4)C3)CC2)s1` [Example 136], for which the IC50 was 320 nM.

As for `O=C(NCc1ncc(F)cc1F)c1cnc(N2CCC(N3CCCC(C4CC4)C3)CC2)s1` (stereo not drawn) [Example 137], the IC50 worked out at 19 nM.

In the case of `O=C(NCc1ncc(F)cc1F)c1cnc(N2CCC(N3CCCC(C4CCC4)C3)CC2)s1` (stereo not drawn) [Example 138], the IC50 is 6.5 nM.

As for `O=C(NCc1ncc(F)cc1F)c1cnc(N2CCC(N3CCc4ccc(Cl)cc4C3)CC2)s1` [Example 139], the concentration for half-maximal inhibition (IC50) came to 0.65 nM.

On to `O=C(NCc1ncc(F)cc1F)c1cnc(N2CCC(N3CCc4cccc(Cl)c4C3)CC2)s1` [Example 141], for which the concentration for half-maximal inhibition (IC50) stood at 8.7 nM.

In the case of `O=C(NCc1ncc(F)cc1F)c1cnc(N2CCC(N3CCc4c(Cl)cccc4C3)CC2)s1` [Example 142], the 50% inhibitory concentration (IC50) is 6.7 nM.

As for `O=C(NCc1ncc(F)cc1F)c1cnc(N2CCC(N3CCc4cccc(F)c4C3)CC2)s1` [Example 144], the IC50 was found to be 1.8 nM.

Consider `COc1ccc2c(c1)CCN(C1CCN(c3ncc(C(=O)NCc4ncc(F)cc4F)s3)CC1)C2` [Example 145], for which the IC50 came to 1 nM.

For the origin of these results see patent US20240000767A1, “COMBINATION OF AN ALPHA2-ADRENOCEPTOR SUBTYPE C (ALPHA-2C) ANTAGONIST WITH A TASK1/3 CHANNEL BLOCKER FOR THE TREATMENT OF SLEEP APNEA” (Bayer Aktiengesellschaft, priority 2020, published 2024).
